Values quoted from earlier work in patent EP1656939A1 (Pooger Properties Limited, priority 2004, dated 2006).

Experiments:
[1] = test system: chemically induced mammary tumors
[2] = test system: Ehrlich-carcinoma- and sarcoma-180-bearing mice; conditions: photoperiod alternated between LD 14:10 and DL 10:14 every 3 days

COc1ccc2[nH]cc(CCNC(C)=O)c2c1 [melatonin, N-acetyl-5-methoxytryptamine]
promotion of chemically induced mammary tumors ([1]; in vivo): inhibits
antitumor activity ([1]; rodents): significant antitumor activity
reduction of survival and acceleration of tumor growth [2]: reversed
half-life of endogenous melatonin in the serum (endogenous melatonin, serum): 30 to 50 min
cleared in a single passage through the liver (single passage through the liver): Approximately 90%
